The results in this text go back to patent publication US20120065103A1, “Prolyl Endopeptidase Probes” (priority 2010, published 2012).

Assay [1] deals with BALF proteases (prolyl endopeptidase activity). In words: IQFP protease substrate profiling of BALF from infected and uninfected guinea pigs (Table 1). Type of assay: biochemical, guinea pig. The note with it: for FI infected / Fold infected: infected guinea pig BALF; for Fold enhancement: infected vs uninfected guinea pig BALF; for FI uninfected / Fold uninfected: uninfected guinea pig BALF. The text has this: Methods: The substrate specificity of AF in vitro culture supernatant was profiled with a combinatorial IQFP library in comparison with human serum to identify fungus-specific substrates. An established guinea pig model of IA was used to collect BALF during active disease for in vivo protease substrate profiling.
(§1) Methods: Guinea pig inhalation model comprises neutropenia by cortisone acetate and cyclophosphamide (days −2 and +3), 1.2×10^8 conidia/mL nebulized AF in inhalation chamber, and serum and BALF obtained at predetermined time points; Vallor et al. Antimicrob. Ag. Chemother. 2008, 52.

Assay [2] relates to Aspergillus fumigatus infected and uninfected guinea pig broncheoaveolar lavage fluid. Kind of assay: Screening probes against Aspergillus fumigatus infected and uninfected guinea pig BALF (Table 2). It is filed as biochemical.
Excerpt: as §1
Table 2 Legend. Variable region (Xaa—Yaa—Zaa) of the top 6 peptide probes are all listed in single amino acid code; AF293 and CEA10 are the two strains of Aspergillus fumigatus infected guinea pig BALF samples screened in this study.
N stands for number of guinea pig BALF samples screened against the given peptide probe. Guinea pig infected and uninfected samples with very low background (t=0 hour) and end point values (t=6 hour) (i.e., no greater than 100 units difference between t=0 hour and t=6 hour) were not selected for the statistical calculations.
Mean fold change values is the average of fluorescence fold change calculated for each guinea pig sample screened against respective peptide probe. Fluorescence fold change values are calculated according to the formula:
Fold Change=Fluorescence measured at time t=6 hour/Fluorescence measured at time t=0 hour.
* Fold change values for these peptide probes were calculated at time t=3 hour as the end point value.
SD corresponds to standard deviation calculated for the given probe screened against the respective BALF sample.
Percentage fluorescence efficiency (% FE) is calculated for each probe as follows, % FE=100 * [(Fold changeInfected BALF-Fold changeUninfected BALF)/Fold changeuninfected BALF] Fold change values are all the mean fold change values.
P values are calculated with two tailed student t-test with two sample unequal variance for each peptide probe screened against respective infected and uninfected BALF samples. […]

The mark [3] stands for this setting: strain AF293, t=6 hour vs t=0 hour.
The mark [4] stands for this setting: strain AF293 series, t=6 hour vs t=0 hour.
The mark [5] stands for this setting: strain CEA10, t=6 hour vs t=0 hour.
Where [6] appears, read: strain CEA10 series, t=6 hour vs t=0 hour.
The mark [7] stands for this setting: strain AF293, end point t=3 hour.
The mark [8] stands for this setting: strain AF293, end point t=3 hour vs t=0 hour.
Where [9] appears, read: strain AF293 series, end point t=3 hour vs t=0 hour.
Where [10] appears, read: strain CEA10, end point t=3 hour.
The mark [11] stands for this setting: strain CEA10, end point t=3 hour vs t=0 hour.
[12] abbreviates: strain CEA10 series, end point t=3 hour vs t=0 hour.

Consider MeOCGly-G-G-P-A/V-N/Q-G-G-Dap(Dnp)-K-K, for which, in assay [1], the FI infected amounted to 325, the Fold infected is recorded as 2.18, the Fold enhancement worked out at 2.13 and the FI uninfected was 188. For the same substance, the Fold uninfected in assay [1] is 1.02.
For MeOCGly-G-G-P-A/V-P-G-G-Dap(Dnp)-K-K, in that order: 488, 2.85, 2.62, 234 and 1.09.
As to MeOCGly-G-G-P-D/E-K/R-G-G-Dap(Dnp)-K-K, in assay [1], the FI infected amounted to 161, the Fold infected came out at 1.64, the Fold enhancement came to 2.02 and the FI uninfected worked out at 118. The substance further gave a Fold uninfected in assay [1] of 0.81.
As to MeOCGly-G-G-P-D/E-P-G-G-Dap(Dnp)-K-K, in assay [1], the FI infected came to 349, the Fold infected is reported as 2.3, the Fold enhancement is given as 2.31 and the FI uninfected is on record as 213. Also, in assay [1], the Fold uninfected is on record as 1.
With MeOCGly-G-G-P-F/Y-A/V-G-G-Dap(Dnp)-K-K, in assay [1], the FI infected was determined as 493, the Fold infected amounted to 3.06, the Fold enhancement turned out to be 2.04 and the FI uninfected is 294. Further, the Fold uninfected in assay [1] amounted to 1.5.
MeOCGly-G-G-P-F/Y-K/R-G-G-Dap(Dnp)-K-K: in assay [1], the FI infected was 238, the Fold infected is reported as 2.09, the Fold enhancement turned out to be 2.06 and the FI uninfected is reported as 151. The Fold uninfected in assay [1] came to 1.01.
MeOCGly-G-G-P-F/Y-N/Q-G-G-Dap(Dnp)-K-K: in assay [1], the FI infected worked out at 286, the Fold infected is 2.8, the Fold enhancement is given as 2.15 and the FI uninfected is 154. In addition, the Fold uninfected in assay [1] was found to be 1.31.
The like results for MeOCGly-G-G-P-F/Y-P-G-G-Dap(Dnp)-K-K were, in that order, 424, 4.71, 4.07, 124 and 1.16.
As to MeOCGly-G-G-P-I/L-P-G-G-Dap(Dnp)-K-K, in assay [1], the FI infected is 474, the Fold infected is recorded as 2.74, the Fold enhancement worked out at 2.21 and the FI uninfected is recorded as 223. The same substance registered a Fold uninfected in assay [1] of 1.24.
MeOCGly-G-G-P-K/R-P-G-G-Dap(Dnp)-K-K: in assay [1], the FI infected was 498, the Fold infected was 2.88, the Fold enhancement is recorded as 2.37 and the FI uninfected is reported as 213. In addition, the Fold uninfected in assay [1] worked out at 1.22.
In the case of MeOCGly-G-G-P-N/Q-A/V-G-G-Dap(Dnp)-K-K, in assay [1], the FI infected was determined as 394, the Fold infected came out at 4.02, the Fold enhancement turned out to be 3.33 and the FI uninfected worked out at 151. This substance also yielded a Fold uninfected in assay [1] of 1.21.
For MeOCGly-G-G-P-N/Q-P-G-G-Dap(Dnp)-K-K, in assay [1], the FI infected is 598, the Fold infected turned out to be 3.93, the Fold enhancement stood at 2.76 and the FI uninfected came out at 261. Moreover, the Fold uninfected in assay [1] is reported as 1.43.
For MeOCGly-G-G-P-S/T-A/V-G-G-Dap(Dnp)-K-K, in that order: 467, 4.28, 2.39, 176 and 1.8.
Turning to MeOCGly-G-G-P-S/T-F/Y-G-G-Dap(Dnp)-K-K, in assay [1], the FI infected came to 397, the Fold infected was 3.31, the Fold enhancement stood at 3.08 and the FI uninfected stood at 146. This substance yielded a Fold uninfected in assay [1] of 1.07.
For MeOCGly-G-G-P-S/T-P-G-G-Dap(Dnp)-K-K, in that order: 665, 3.63, 2.81, 277 and 1.29.
Turning to MeOCGly-GGPFPGG Dap(DNP)KK-NH2, the “% FE (percentage fluorescence efficiency)” value in assay [2] (strain AF293, t=6 hour) worked out at 227.09%; in assay [2] (strain CEA10, t=6 hour) it was 326.24%. Besides, the “Mean Fold change, Infected BALF” value in assay [2] (setting [3]) was 6.58; in assay [2] (setting [5]), 12.44. Besides, the “Mean Fold Change, Uninfected BALF” value in assay [2] (setting [4]) is 2.01; in assay [2] (setting [6]), 2.92.
As for MeOCGly-GGPHPGG Dap(DNP)KK-NH2, the “% FE (percentage fluorescence efficiency)” value in assay [2] (strain AF293, t=6 hour) came out at 219.69%; in assay [2] (strain CEA10, t=6 hour), 217.59%. In addition, the “Mean Fold change, Infected BALF” value in assay [2] (setting [3]) is on record as 4.47; in assay [2] (setting [5]), 10.61. The entries for the “Mean Fold Change, Uninfected BALF” value in assay [2] (setting [4]) and in assay [2] (setting [6]) were 1.40 and 3.34, respectively.
In the case of MeOCGly-GGPNPGG Dap(DNP)KK-NH2, the “% FE (percentage fluorescence efficiency)” value in assay [2] (setting [7]) was 274.00%; in assay [2] (setting [10]), 252.39%. For the same substance, the “Mean Fold change, Infected BALF” value in assay [2] (setting [8]) amounted to 5.68; in assay [2] (setting [11]), 13.68. Also, the figures for the “Mean Fold Change, Uninfected BALF” value in assay [2] (setting [9]) and in assay [2] (setting [12]) were 1.52 and 3.88, respectively.
Regarding MeOCGly-GGPNPNPGG Dap(DNP)KK-NH2, the “% FE (percentage fluorescence efficiency)” value in assay [2] (strain AF293, t=6 hour) came out at 355.02%; in assay [2] (strain CEA10, t=6 hour), 111.20%. The “Mean Fold change, Infected BALF” value came out at 13.47 in assay [2] (setting [3]) and 8.72 in assay [2] (setting [5]). Moreover, the figures for the “Mean Fold Change, Uninfected BALF” value in assay [2] (setting [4]) and in assay [2] (setting [6]) were 2.96 and 4.13, respectively.
As for MeOCGly-GGPSPGG Dap(DNP)KK-NH2, the “% FE (percentage fluorescence efficiency)” value amounted to 309.39% in assay [2] (strain AF293, t=6 hour) and 142.55% in assay [2] (strain CEA10, t=6 hour). The “Mean Fold change, Infected BALF” value in assay [2] (setting [3]) worked out at 12.49; in assay [2] (setting [5]) it was 11.00. In addition, the “Mean Fold Change, Uninfected BALF” value in assay [2] (setting [4]) turned out to be 3.05; in assay [2] (setting [6]), 4.54.
In the case of MeOCGly-GGPYPGG Dap(DNP)KK-NH2, the figures for the “% FE (percentage fluorescence efficiency)” value in assay [2] (setting [7]) and in assay [2] (setting [10]) were 203.00% and 310.44%, respectively. Further, the “Mean Fold change, Infected BALF” value in assay [2] (setting [8]) is on record as 5.42; in assay [2] (setting [11]), 14.62. For the same substance, the “Mean Fold Change, Uninfected BALF” value in assay [2] (setting [9]) was 1.79; in assay [2] (setting [12]), 3.56.
